Counter-ions that a name gives are not always drawn. Like-named read-outs stand apart in the source and are kept apart here.

In patent publication US20240239788A1, “SMALL MOLECULE INHIBITORS OF KRAS G12D MUTANT” (Merck Sharp & Dohme LLC, priority 2021, published 2024) one finds IC50 data, which are given here for 28 compounds.

Assay [1] deals with KRAS protein containing G12D mutation (Homo sapiens (Human), UniProt P01116, G12D). As to the kind of experiment: SOS-catalyzed nucleotide exchange assay (GNE), TR-FRET. The note with it: biotinylated KRAS G12D, SOS and GTP, 60-minute incubation. It counts as biochemical. How it is done: Compounds are added to this complex and then after a 60-minute incubation time the mixture is treated with SOS and unlabeled GTP. Small molecule inhibitors stabilize the Bodipy-GDP complex whereas the untreated protein rapidly exchanges Bodipy-GDP for unlabeled GTP resulting in reduced TR-FRET signal.
This solution is referred to as biotinylated KRAS G12D stock solution.
In general terms: In TR-FRET formats the signal depends on donor and acceptor labels being close together.

The subject of assay [2] is AsPC-1 cells containing homozygous KRAS-G12D activating mutation. As to the kind of experiment: Cellular phospho-ERK assay with 10% FBS (Examples 107a-256). It counts as cell-based. Here is the method: 5% CO2 for 2 hours. […] Assay plates were read on a EnVision Multimode Plate Reader (PerkinElmer) and the ratio of p-Erk vs total Erk in each well was used as the final readout.

[3] abbreviates: Homo sapiens, ASPC1, 2 h, read-out: IC50 (nM) pERK (cell with FBS 10%), AsPC-1 cells, 10% fetal bovine serum, 2 hours, ratio of p-Erk vs total Erk.
Where [4] appears, read: read-out: IC50 (nM) pERK (cell with FBS 10%), AsPC-1 cells, 10% fetal bovine serum, 2 hours, ratio of p-Erk vs total Erk.

KRAS protein containing G12D mutation, sequence (P01116 other isoform, or with tags, fused parts or gaps G12D (already in the parent)): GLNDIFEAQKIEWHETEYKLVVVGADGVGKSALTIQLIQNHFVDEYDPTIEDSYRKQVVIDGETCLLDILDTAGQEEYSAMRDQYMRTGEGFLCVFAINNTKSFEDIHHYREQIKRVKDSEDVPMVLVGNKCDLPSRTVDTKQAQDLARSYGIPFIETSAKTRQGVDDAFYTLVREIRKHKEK

`C[C@]12CC[C@H](CN(c3nc(OCC45CNCC4C5)nc4c(F)c(-c5cc(O)cc6cccc(Cl)c56)c(F)cc34)C1)N2` (mixture of isomers) [Ex. 165, 4-(2-((3-azabicyclo-[3.1.0]hexan-1-yl)-methoxy)-6,8-difluoro-4-((1S,5R)-1-methyl-3,8-diazabicyclo[3.2.1]-octan-3-yl)quinazolin-7-yl)-5-chloronaph-thalen-2-ol, TFA]: the figures for the IC50 in assay [1] and in assay [2] (setting [3]) were 149 nM and 15400 nM, respectively.
The like results for `Cc1cc(N)nc(-c2c(F)cc3c(N4CC5CCC(C4)N5)nc(OC[C@@]45CCCN4C[C@H](F)C5)nc3c2F)c1C(F)(F)F` (mixture of isomers) [Ex. 193, 6-(4-((1R,5S)-3,8-diazabicyclo[3.2.1]-octan-3-yl)-6,8-difluoro-2-(((2R,7aS)-2-fluorotetrahydro-1H-pyrrolizin-7a(5H)-yl)methoxy)quinazo-lin-7-yl)-4-methyl-5-(trifluoromethyl)pyr-idin-2-amine] were, in that order, 10.3 nM and 187 nM.
With `C[C@]12CCC(CN(c3nc(OC[C@@]45CCCN4C[C@H](F)C5)nc4c(F)c(-c5cccc6cccc(Cl)c56)c(F)cc34)C1)N2` (mixture of isomers) [Ex. 212, 7-(8-chloronaphthalen-1-yl)-6,8-difluoro-2-(((2R, 7aS)-2-fluorotetrahydro-1H-pyrrolizin-7a(5H)-yl)-methoxy)-4-((1S,5R)-1-methyl-3,8-diazabicyclo-[3.2.1]octan-3-yl)quinazoline, 2TFA], the IC50 was 180 nM in assay [1] and 9060 nM in assay [2] (setting [3]).
On the same counts, the results for `C[C@]12CCC(CN(c3nc(OC[C@]4(CN5CCC(CO)C5)CC4(F)F)nc4c(F)c(-c5cc(O)cc6cccc(Cl)c56)c(F)cc34)C1)N2` (mixture of isomers) [Ex. 218, 5-chloro-4-(2-(((1R)-2,2-difluoro-1-((3-(hydroxymethyl)pyrrolidin-1-)-methyl)cyclopropyl)methoxy)-6,8-difluoro-4-((1S,5R)-1-methyl-3,8-diazabicyclo[3.2.1]octan-3-yl)quinazolin-7-yl)naphthalen-2-ol] are 6.54 nM and 1550 nM.
On the same counts, the results for `C[C@]12CC[C@H](CN(c3nc(OCC4(CN5CCCC(O)(C(F)(F)F)C5)CC4)nc4c(F)c(-c5cc(O)cc6cccc(Cl)c56)c(F)cc34)C1)N2` (mixture of isomers) [Ex. 206, rac-1-((1-(((7-(8-chloro-3-hydroxynaphthalen-1-yl)-6,8-difluoro-4-((1S,5R)-1-methyl-3,8-diazabicyclo-[3.2.1]octan-3-yl)quinazolin-2-yl)oxy)methyl)cyclo-propyl)methyl)-3-(trifluoromethyl)piperidin-3-ol] are 1340 nM and 30000 nM.
`C[C@]12CC[C@H](CN(c3nc(OCC4(CN5CCCC(O)(C(F)(F)F)C5)CC4)nc4c(F)c(-c5cc(O)cc6cccc(Cl)c56)c(F)cc34)C1)N2` (mixture of isomers) [Ex. 207, rac-1-((1-(((7-(8-chloro-3-hydroxynaphthalen-1-yl)-6,8-difluoro-4-((1S,5R)-1-methyl-3,8-diazabicyclo-[3.2.1]octan-3-yl)quinazolin-2-yl)oxy)methyl)cyclo-propyl)methyl)-3-trifluoromethyl)piperidin-3-ol]: the IC50 in assay [1] stood at 767 nM; in assay [2] (setting [4]), 30000 nM.
On to `Cc1cc2[nH]nc(C#N)c2c(-c2c(F)cc3c(N4C[C@H]5CC[C@@H](C4)N5)nc(OC[C@@]45CCCN4C[C@H](F)C5)nc3c2F)c1C(F)(F)F` (single isomer, unassigned) [227b], for which the IC50 in assay [1] amounted to 1.02 nM; in assay [2] (setting [4]) it was 32.6 nM.
Regarding `C#Cc1c(F)ccc2cccc(-c3c(F)cc4c(N5CC6CC[C@@](C)(C5)N6)nc(OCC56CCCN5C(COC(=O)N(C)C)CC6)nc4c3F)c12` (single isomer, unassigned) [242a], the results for the IC50 in assay [1] and in assay [2] (setting [4]) were 1.15 nM and 135 nM, respectively.
The like results for `C#Cc1c(F)ccc2cccc(-c3c(F)cc4c(N5CC6CC[C@@](C)(C5)N6)nc(OCC56CCCN5C(COC(=O)N(C)C)CC6)nc4c3F)c12` (single isomer, unassigned) [242b] were, in that order, 93.5 nM and 1080 nM.
Regarding `Cc1cc(N)nc(-c2c(Cl)cc3c(N4CC5CC(O)C(C4)N5)nc(OC[C@@]45CCCN4C[C@H](F)C5)nc3c2F)c1C(F)(F)F` (single isomer, unassigned) [249b], the IC50 was 1.52 nM in assay [1] and 360 nM in assay [2] (setting [3]).
Take `Cc1nc2[nH]nc(C)c2c(-c2c(F)cc3c(N4C[C@H]5CC[C@@H](C4)N5)nc(OC[C@@]45CCCN4C[C@H](F)C5)nc3c2F)c1C(F)(F)F` (single isomer, unassigned) [250b]: the IC50 amounted to 1.54 nM in assay [1] and 63.1 nM in assay [2] (setting [4]).
For `C#Cc1c(F)ccc2cc(N)nc(-c3c(F)cc4c(N5C[C@H]6CC[C@@H](C5)N6)nc(OC[C@@]56CCCN5C[C@H](F)C6)nc4c3F)c12` (single isomer, unassigned) [252a], the results for the IC50 in assay [1] and in assay [2] (setting [3]) were 0.85 nM and 64.3 nM, respectively.
For `CN(C)CC1(COc2nc(N3C[C@H]4CC[C@@](C)(C3)N4)c3cc(F)c(-c4cc(O)cc5ccccc45)c(F)c3n2)CC1C(=O)O` (single isomer, unassigned) [Ex. 107a], the IC50 in assay [1] was 648 nM; in assay [2] (setting [4]), 30000 nM.
Take `Cc1cc2[nH]ncc2c(-c2c(F)cc3c(N4C[C@H]5CC[C@@](C)(C4)N5)nc(OC[C@@]45CCCN4C[C@H](F)C5)nc3c2F)c1OC(F)(F)F` (single isomer, unassigned) [Ex. 126a]: the figures for the IC50 in assay [1] and in assay [2] (setting [4]) were 8.59 nM and 1240 nM, respectively.
Regarding `Cc1cc2[nH]ncc2c(-c2c(F)cc3c(N4C[C@H]5CC[C@@](C)(C4)N5)nc(OC[C@@]45CCCN4C[C@H](F)C5)nc3c2F)c1OC(F)(F)F` (single isomer, unassigned) [Ex. 126b], the values for the IC50 in assay [1] and in assay [2] (setting [4]) were 67.9 nM and 3460 nM, respectively.
Take `Cc1cc2[nH]nc(C)c2c(-c2c(F)cc3c(N4CC5CCC(C4)N5)nc(OC[C@@]45CCCN4C[C@H](F)C5)nc3c2F)c1C(F)(F)F` (single isomer, unassigned) [Ex. 128a]: the figures for the IC50 in assay [1] and in assay [2] (setting [4]) were 1.28 nM and 43.4 nM, respectively.
With `Cc1cc2[nH]nc(C)c2c(-c2c(F)cc3c(N4CC5CCC(C4)N5)nc(OC[C@@]45CCCN4C[C@H](F)C5)nc3c2F)c1C(F)(F)F` (single isomer, unassigned) [Ex. 128b], the IC50 in assay [1] was 232 nM; in assay [2] (setting [4]), 2850 nM.
With `C[C@]12CC[C@H](CN(c3nc(OC[C@@]45CCCN4C[C@H](F)C5)nc4c(F)c(-c5cc(O)cc(Cl)c5Cl)c(F)cc34)C1)N2` (single isomer, unassigned) [Ex. 129a, HCl], the IC50 in assay [1] is 17.7 nM; in assay [2] (setting [3]) it was 2810 nM.
Consider `C[C@]12CC[C@H](CN(c3nc(OC[C@@]45CCCN4C[C@H](F)C5)nc4c(F)c(-c5cc(O)cc(Cl)c5Cl)c(F)cc34)C1)N2` (single isomer, unassigned) [Ex. 129b, HCl], for which the IC50 in assay [1] is 14.1 nM; in assay [2] (read-out: IC50 (nM) pERK (cell with FBS 10%), AsPC-1 cells, 10% fetal bovine serum, 2 hours, ratio of p-Erk vs total Erk, HCl) it was 3010 nM.
With `Nc1nc2c(-c3c(Cl)cc4c(N5CC6CCC(C5)N6)nc(OC[C@@]56CCCN5C[C@H](F)C6)nc4c3F)c(F)cc(F)c2o1` (single isomer, unassigned) [Ex. 133a], the values for the IC50 in assay [1] and in assay [2] (setting [4]) were 61.4 nM and 3470 nM, respectively.
Consider `Nc1nc2c(-c3c(Cl)cc4c(N5CC6CCC(C5)N6)nc(OC[C@@]56CCCN5C[C@H](F)C6)nc4c3F)c(F)cc(F)c2o1` (single isomer, unassigned) [Ex. 133b], for which the IC50 came to 1.16 nM in assay [1] and 410 nM in assay [2] (setting [4]).
Take `C#Cc1c(F)ccc2cccc(-c3c(F)cc4c(N5CC6CCC(C5)N6)nc(OC[C@@]56CCCN5[C@H](CO)CC6)nc4c3F)c12` (single isomer, unassigned) [Ex. 142]: the IC50 was found to be 1.57 nM in assay [1] and 384 nM in assay [2] (setting [3]).
On to `C#Cc1cccc2cc(O)c(Cl)c(-c3c(F)cc4c(N5CC6CC[C@@](C)(C5)N6)nc(OC[C@@]56CCCN5C[C@H](F)C6)nc4c3F)c12` (single isomer, unassigned) [Ex. 143a], for which the IC50 in assay [1] amounted to 0.86 nM; in assay [2] (setting [4]), 53.5 nM.
With `C#Cc1cccc2cc(O)c(Cl)c(-c3c(F)cc4c(N5CC6CC[C@@](C)(C5)N6)nc(OC[C@@]56CCCN5C[C@H](F)C6)nc4c3F)c12` (single isomer, unassigned) [Ex. 143b], the results for the IC50 in assay [1] and in assay [2] (setting [4]) were 74.5 nM and 2500 nM, respectively.
For `N#Cc1c(N)sc2c(F)ccc(-c3c(F)cc4c(N5C[C@H]6CC[C@@H](C5)N6)nc(OC[C@@]56CCCN5C[C@H](F)C6)nc4c3F)c12` (single isomer, unassigned) [Ex. 144a], the IC50 in assay [1] was 2.03 nM; in assay [2] (setting [4]), 83.9 nM.
In the case of `N#Cc1c(N)sc2c(F)ccc(-c3c(F)cc4c(N5C[C@H]6CC[C@@H](C5)N6)nc(OC[C@@]56CCCN5C[C@H](F)C6)nc4c3F)c12` (single isomer, unassigned) [Ex. 144b], the IC50 came out at 20 nM in assay [1] and 392 nM in assay [2] (setting [4]).
For `Nc1cc(F)c(C(F)(F)F)c(-c2c(F)cc3c(N4CC5CCC(C4)N5)nc(OC[C@@]45CCCN4C[C@H](F)C5)nc3c2F)c1F` (single isomer, unassigned) [Ex. 145a], the IC50 in assay [1] came to 1270 nM; in assay [2] (setting [4]) it was 19400 nM.
The like results for `Nc1cc(F)c(C(F)(F)F)c(-c2c(F)cc3c(N4CC5CCC(C4)N5)nc(OC[C@@]45CCCN4C[C@H](F)C5)nc3c2F)c1F` (single isomer, unassigned) [Ex. 145b] were, in that order, 14.1 nM and 358 nM.
